# Experiments:
# 5HT2C receptors = biological target: T1, 5HT2C receptors (Homo sapiens, UniProt P28335); assay: Human 5-HT2C functional assay in CHO-K1 cells (calcium flux, FLIPR); assay type: cell-based; parameters: expressed in transfected cells; host or cells: CHO-K1 cells; details: for EC50: CHO-K1 cells over-expressing 5HT2C, calcium flux, read-out: EC50 (μM), 5-HT2c Agonist Activity; for Emax: CHO-K1 cells, percentage relative to the effect of serotonin, read-out: Emax (%), 5-HT2c Agonist Activity
# T1 sequence (P28335 33-458): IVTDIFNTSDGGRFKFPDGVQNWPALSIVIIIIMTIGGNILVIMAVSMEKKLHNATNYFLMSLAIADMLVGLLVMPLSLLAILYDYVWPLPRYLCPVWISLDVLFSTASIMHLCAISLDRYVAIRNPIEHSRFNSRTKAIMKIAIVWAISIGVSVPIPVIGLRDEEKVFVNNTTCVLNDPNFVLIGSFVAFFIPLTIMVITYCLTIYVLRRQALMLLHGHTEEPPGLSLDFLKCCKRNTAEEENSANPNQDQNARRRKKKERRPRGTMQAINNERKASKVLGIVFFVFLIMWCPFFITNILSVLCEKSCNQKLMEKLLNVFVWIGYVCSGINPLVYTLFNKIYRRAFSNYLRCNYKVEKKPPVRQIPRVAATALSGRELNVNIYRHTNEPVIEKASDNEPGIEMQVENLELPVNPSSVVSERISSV
# Summary of the method: (§1)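 EC50 came from a 4-parameter logistic fit, with Emax expressed relative to serotonin, of intracellular Ca2+ rises read on FLIPR at 480/530 nm, 25° C, over 3 min. Compounds ran from 10 μM in six 1:10 steps (0.2% DMSO) on serum-starved CHO-K1 transfectants pre-loaded 60 min with Ca4 dye and probenecid.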
# 5HT2B receptors = biological target: T2, 5HT2B receptors (Homo sapiens, UniProt P41595); assay: Human 5-HT2B functional assay in CHO-K1 cells (calcium flux, FLIPR); assay type: cell-based; details: for EC50: CHO-K1 cells over-expressing 5HT2B, calcium flux, read-out: EC50 (μM), 5-HT2B Agonist Activity; for Emax: CHO-K1 cells, percentage relative to the effect of serotonin, read-out: Emax (%), 5-HT2B Agonist Activity
# T2 construct: expressed in transfected cells; host or cells: CHO-K1 cells
# T2 sequence (P41595 whole entry): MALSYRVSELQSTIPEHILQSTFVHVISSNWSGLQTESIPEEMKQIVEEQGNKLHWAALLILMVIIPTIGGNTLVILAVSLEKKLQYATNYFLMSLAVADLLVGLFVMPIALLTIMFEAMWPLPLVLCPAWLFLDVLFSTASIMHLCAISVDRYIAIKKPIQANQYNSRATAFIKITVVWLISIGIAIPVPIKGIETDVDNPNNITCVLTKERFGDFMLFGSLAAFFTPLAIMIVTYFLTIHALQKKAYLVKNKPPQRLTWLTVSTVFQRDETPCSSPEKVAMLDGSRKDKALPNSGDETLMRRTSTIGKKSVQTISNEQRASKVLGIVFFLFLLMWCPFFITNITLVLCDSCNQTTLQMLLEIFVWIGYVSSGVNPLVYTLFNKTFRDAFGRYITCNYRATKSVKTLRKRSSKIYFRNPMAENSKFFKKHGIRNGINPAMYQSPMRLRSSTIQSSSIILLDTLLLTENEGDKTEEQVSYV
# Summary of the method: as §1
Compound,EC50 (5HT2C receptors),Emax (5HT2C receptors),EC50 (5HT2B receptors),Emax (5HT2B receptors)
"C[C@H](Oc1ccc2c(c1)N1CCNCC1CC(=O)N2)c1ccccc1 (stereo partly drawn) [Example 154, 10-[(1S)-1-phenylethoxy]-1,2,3,4,4a,5-hexahydropyrazino[1,2-a][1,5]benzodiazepin-6(7H)-one]",0.103 µM,> 120%,0.7 µM,44%
"O=C1CC2CNCCN2c2cc(OCc3cccc(F)c3)ccc2N1 (stereo not drawn) [Example 156, 10-[(3-fluorobenzyl)oxy]-1,2,3,4,4a,5-hexahydropyrazino[1,2-a][1,5]benzodiazepin-6(7H)-one]",0.0059 µM,> 120%,0.35 µM,77%
"O=C1CC2CNCCN2c2cc(OCc3ccccc3C(F)(F)F)ccc2N1 (stereo not drawn) [Example 157, 10-{[2-(trifluoromethyl)benzyl]oxy}-1,2,3,4,4a,5-hexahydropyrazino[1,2-a][1,5]benzodiazepin-6(7H)-one]",0.0295 µM,> 120%,> 10 µM,–
"O=C1CC2CNCCN2c2cc(OCCc3ccccc3)ccc2N1 (stereo not drawn) [Example 158, 10-(2-phenylethoxy)-1,2,3,4,4a,5-hexahydropyrazino[1,2-a][1,5]benzodiazepin-6(7H)-one]",0.025 µM,> 120%,> 10 µM,–
"C[C@H](Cc1ccccc1)Oc1ccc2c(c1)N1CCNCC1CC(=O)N2 (stereo partly drawn) [Example 159, 10-{[(2R)-1-phenylpropan-2-yl]oxy}-1,2,3,4,4a,5-hexahydropyrazino[1,2-a][1,5]benzodiazepin-6(7H)-one]",0.00402 µM,> 120%,> 10 µM,–
"C[C@@H](Cc1ccccc1)Oc1ccc2c(c1)N1CCNCC1CC(=O)N2 (stereo partly drawn) [Example 160, 10-{[(2S)-1-phenylpropan-2-yl]oxy}-1,2,3,4,4a,5-hexahydropyrazino[1,2-a][1,5]benzodiazepin-6(7H)-one]",0.0797 µM,> 120%,> 10 µM,–
"C[C@@H](Oc1ccc2c(c1)N1CCNCC1CC(=O)N2)c1ccccc1F (stereo partly drawn) [Example 161, 10-[(1R)-1-(2-fluorophenyl)ethoxy]-1,2,3,4,4a,5-hexahydropyrazino[1,2-a][1,5]benzodiazepin-6(7H)-one]",0.01 µM,120%,1 µM,20%
"C[C@H](Oc1ccc2c(c1)N1CCNCC1CC(=O)N2)c1ccccc1F (stereo partly drawn) [Example 162, 10-[(1S)-1-(2-fluorophenyl)ethoxy]-1,2,3,4,4a,5-hexahydropyrazino[1,2-a][1,5]benzodiazepin-6(7H)-one]",0.07 µM,> 120%,1 µM,20%
"C[C@@H](Cc1ccccc1)Oc1ccc2c(c1)N1CCNC[C@@H]1CC(=O)N2 [Example 163, (4aS)-10-{[(2S)-1-phenylpropan-2-yl]oxy}-1,2,3,4,4a,5-hexahydropyrazino[1,2-a][1,5]benzodiazepin-6(7H)-one]",0.07 µM,> 120%,> 10 µM,–
"O=C1C[C@H]2CNCCN2c2cc(OCCc3cccc(F)c3)ccc2N1 [Example 164, (4aS)-10-[2-(3-fluorophenyl)ethoxy]-1,2,3,4,4a,5-hexahydropyrazino[1,2-a][1,5]benzodiazepin-6(7H)-one]",0.007 µM,> 120%,> 10 µM,–
"C[C@H](Cc1ccccc1)Oc1ccc2c(c1)N1CCNC[C@@H]1CC(=O)N2 [Example 165, (4aS)-10-{[(2R)-1-phenylpropan-2-yl]oxy}-1,2,3,4,4a,5-hexahydropyrazino[1,2-a][1,5]benzodiazepin-6(7H)-one]",0.008 µM,> 120%,> 10 µM,–
"C[C@H](Cc1ccccc1)Oc1ccc2c(c1)N1CCNC[C@H]1CC(=O)N2 [Example 166, (4aR)-10-{[(2R)-1-phenylpropan-2-yl]oxy}-1,2,3,4,4a,5-hexahydropyrazino[1,2-a][1,5]benzodiazepin-6(7H)-one]",0.04 µM,> 120%,> 10 µM,–
"c1ccc(CN2CCN3c4ccccc4OCC[C@H]3C2)cc1 [Example 168, (4aS)-3-benzyl-2,3,4,4a,5,6-hexahydro-1H-pyrazino[2,1-d][1,5]-benzoxazepine]",0.9 µM,50%,> 10 µM,–
"O=C1C[C@H]2CNCCN2c2cc(OCCc3ccccc3Cl)ccc2N1 [Example 172, (4aS)-10-[2-(2-chlorophenyl)ethoxy]-1,2,3,4,4a,5-hexahydropyrazino[1,2-a][1,5]benzodiazepin-6(7H)-one]",0.002 µM,> 120%,> 10 µM,–
"O=C1C[C@H]2CNCCN2c2cc(OCCc3cccc(C(F)(F)F)c3)ccc2N1 [Example 173, (4aS)-10-{2-[3-(trifluoromethyl)phenyl]ethoxy}-1,2,3,4,4a,5-hexahydropyrazino[1,2-a][1,5]benzodiazepin-6(7H)-one]",0.004 µM,110%,> 10 µM,–
"CCC(C)Oc1ccc2c(c1)N1CCNC[C@@H]1CC(=O)N2 (stereo partly drawn) [Example 174, (4aS)-10-sec-butoxy-1,2,3,4,4a,5-hexahydropyrazino[1,2-a][1,5]benzodiazepin-6(7H)-one]",0.007 µM,> 120%,> 10 µM,–

# Next, values leading:
EC50 (5HT2C receptors),Emax (5HT2C receptors),EC50 (5HT2B receptors),Emax (5HT2B receptors),Compound
0.07 µM,110%,5 µM,30%,"CN1C(=O)CC2CNCCN2c2cc(CCc3ccccc3)ccc21 (stereo not drawn) [Example 151, 7-methyl-10-(2-phenylethyl)-1,2,3,4,4a,5-hexahydropyrazino[1,2-a][1,5]benzodiazepin-6(7H)-one]"
0.01 µM,100%,> 10 µM,–,"O=C1CC2CNCCN2c2cc(OCCc3cccc(F)c3)ccc2N1 (stereo not drawn) [Example 152, 10-[2-(3-fluorophenyl)ethoxy]-1,2,3,4,4a,5-hexahydropyrazino[1,2-a][1,5]benzodiazepin-6(7H)-one]"
0.01 µM,110%,0.1 µM,20%,"C[C@@H](Oc1ccc2c(c1)N1CCNCC1CC(=O)N2)c1ccccc1 (stereo partly drawn) [Example 153, 10-[(1R)-1-phenylethoxy]-1,2,3,4,4a,5-hexahydropyrazino[1,2-a][1,5]benzodiazepin-6(7H)-one]"
0.0384 µM,> 120%,> 10 µM,–,"O=C1CC2CNCCN2c2cc(OCc3ccccc3F)ccc2N1 (stereo not drawn) [Example 155, 10-[(2-fluorobenzyl)oxy]-1,2,3,4,4a,5-hexahydropyrazino[1,2-a][1,5]benzodiazepin-6(7H)-one]"
1 µM,110%,> 10 µM,–,"C[C@@H](Cc1ccccc1)Oc1ccc2c(c1)N1CCNC[C@H]1CC(=O)N2 [Example 167, (4aR)-10-{[(2S)-1-phenylpropan-2-yl]oxy}-1,2,3,4,4a,5-hexahydropyrazino[1,2-a][1,5]benzodiazepin-6(7H)-one]"
0.02 µM,> 120%,> 10 µM,–,"O=C1C[C@H]2CNCCN2c2cc(OCC3CC3)ccc2N1 [Example 170, (4aS)-10-(cyclopropylmethoxy)-1,2,3,4,4a,5-hexahydropyrazino[1,2-a][1,5]benzodiazepin-6(7H)-one]"
0.9 µM,100%,> 10 µM,–,"O=C1C[C@H]2CNCCN2c2cc(OCCc3ccccn3)ccc2N1 [Example 171, (4aS)-10-[2-(pyridin-2-yl)ethoxy]-1,2,3,4,4a,5-hexahydropyrazino[1,2-a][1,5]benzodiazepin-6(7H)-one]"

# Source: patent publication US8546377B2 (AbbVie Inc., priority 2009, dated 2013)
